According to patent US20260209243A1, “A BIOORTHOGONAL CYCLOADDITION REACTION AND USE THEREOF” (NANJING UNIVERSITY, priority 2022, published 2026):

Columns and labels:
[1] = Kinetics studies: DFC reaction of FuA with oD1 in PBS; details: pH 7.4 PBS buffer
Experimental: (§1) DFC reaction in PBS and on proteins. (A) The DFC reaction of oD1 with FuA in pH 7.4 PBS buffer; (B) Time-dependent labelling of 2 mg/mL BSA-FuA with 100 nM oD1-TAMRA for time indicated. Fluorescence signals were acquired using Cy3 channel. Coomassie staining was used to assess BSA loading; (C) Schematic illustration on the single-site modification of the protein oD1 (C156)-SNAP-GFP through the DFC reaction. SNAP-GFP (2 mg/mL) in PBS (pH=7.4) was mixed with 1.5 equivalents of BG-PEG4-oD1 and was incubated at room temperature for 20 min to give oD1 (C156)-SNAP-GFP.
(§2) Measurement of second order rate constants of (A) reactions of o-dione (25 μM) with furan-2(3H)-one (250 μM) in 1×PBS (pH=7.4) and (B) reactions of oD1 (25 μM) with α-AL (250 μM) in different pH buffer. (When pH=5, 6; oD1 is 250 μM and α-AL is 2.5 mM) by plotting ln[1/(1−x)] versus time of o-dione with furan-2(3H)-one reaction (x represents the percent conversion of o-dione).
All kinetics experiments were carried out at room temperature in 1×PBS (pH=7.4). […] Pseudo-first order rate constant kobs was determined by plotting ln[1/(1−x)] versus time and analysis by linear regression. x represents the percent conversion of o-dione. […] The second rate constant k2 was calculated by kobs/[furan-2(3H)-one]. […]

SKOV3 cells = experiment: MTT assay; format: cell-based; details: 0-200 μM, 24 h
Experimental: Relative cell viability of SKOV3 cells after incubation with FuA or PDO6. SKOV3 cells were incubated with 0-200 μM FuA or PDO6 for 24 h. MTT was used to assess the cell viability. Data are shown as mean±SEM (n=3).
SKOV3 cells were seeded in 96-well plates with a concentration of 10,000 cells per well. After 12 h, FuA or PDO6 was added with final concentrations of 0, 40, 80, 120, 160, 200 μM. Then, SKOV3 cells were further cultured for 24 h. MTT assay was then carried out. For each well, 20 μL MTT solution (final concentration, 1 mg/mL) was added and 150 μL DMSO was added after 4 h′ incubation. The absorbance at 490 nm was then measured to indicate the cell viability.

BSA-FuA = target: T1, BSA-FuA (Bos taurus, UniProt P02769); experiment: In-gel fluorescence assay of DFC reaction on BSA-FuA; format: biochemical, bovine; details: incubated in PBS; PDO type cycloadduct confirmed by LC-MS/MS
T1 construct: purchased Sangon Biotech (Shanghai, China)
T1 sequence (P02769 25-607): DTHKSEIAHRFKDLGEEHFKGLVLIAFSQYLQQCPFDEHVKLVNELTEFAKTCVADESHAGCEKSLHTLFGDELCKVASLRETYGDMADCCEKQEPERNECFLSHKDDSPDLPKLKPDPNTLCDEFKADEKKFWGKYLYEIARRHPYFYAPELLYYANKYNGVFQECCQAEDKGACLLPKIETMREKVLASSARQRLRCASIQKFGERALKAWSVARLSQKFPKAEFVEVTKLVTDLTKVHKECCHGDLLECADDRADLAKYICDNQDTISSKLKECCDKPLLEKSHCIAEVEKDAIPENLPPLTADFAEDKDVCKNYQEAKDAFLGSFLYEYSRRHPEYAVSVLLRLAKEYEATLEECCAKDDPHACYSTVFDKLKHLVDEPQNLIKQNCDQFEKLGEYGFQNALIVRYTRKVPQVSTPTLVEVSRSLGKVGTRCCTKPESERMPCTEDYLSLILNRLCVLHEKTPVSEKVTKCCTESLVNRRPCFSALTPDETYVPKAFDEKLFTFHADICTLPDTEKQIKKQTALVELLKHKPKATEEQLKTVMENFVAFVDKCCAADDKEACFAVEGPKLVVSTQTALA
Experimental: as §1
DFC-based BSA protein labelling and characterization. […]
A solution of BSA (2 mg/mL) in PBS (pH=7.4) was mixed with 200 equivalents of FuA NHS ester and was shaken (900 rpm) at room temperature for 4 h. […] The concentration of BSA-FuA was quantified with BCA protein assay kit (Pierce).
For concentration-dependent reaction, BSA-FuA (2 mg/mL) was incubated with various concentrations of oD1-TAMRA (0-1000 nM) in PBS at room temperature for 30 min. […] Protein samples (20 μg) were further analyzed by gel electrophoresis using 12% polyacrylamide gels and imaged with Bio-Rad Chemdoc imaging system using corresponding filters. Protein loading was assessed by staining with Coomassie Blue according to manufacturer's instructions.

live cells = details: stated as known; cited from earlier work
[2] = Kinetics studies: cycloaddition of o-diones with α-AL; details: aqueous solution, pH ranging from 5 to 9
Experimental: The cycloaddition kinetics of α-AL with different o-diones in pH 7.4 PBS buffer or in aqueous solution with indicated pH.
as §2
All kinetics experiments were carried out at room temperature in 1×PBS (pH=7.4). Second order kinetics were performed by combining o-dione and furan-2(3H)-one in a 1:10 ratio, and the concentration of o-dione is 25/250 μM. Pseudo-first order rate constant kobs was determined by plotting ln[1/(1−x)] versus time and analysis by linear regression. x represents the percent conversion of o-dione. The slope of the linear equation is kobs. The second rate constant k2 was calculated by kobs/[furan-2(3H)-one]. The reported errors for rate constants are based on the standard deviation of the mean for experiments performed in triplicate.

Structure (SMILES): O=C(O)CCCC1=CCC(=O)O1 [FuA, 4-(5-oxo-4,5-dihydrofuran-2-yl)butanoic acid]
- second-order constant of DFC reaction of oD1 with FuA [1]: about 4 M^−1 s^−1
- cytotoxicity / compatibility with live cells (MTT) (SKOV3 cells): good compatibility with live cells

Structure (SMILES): O=C1C(=O)c2ccccc2-c2ccccc21 [PQ, phenanthrene-9,10-dione]
- fluorescence of BSA-FuA after incubation (BSA-FuA): fluorescence turn-on

Structure (SMILES): O=C(O)c1ccc2c(c1)-c1ccccc1C(=O)C2=O [oD1]
- compatibility with live cells (live cells): compatible with live cells
- pH dependence of reaction kinetics with α-AL [2]: increase of pH under which α-AL is stable enough apparently accelerates the cycloaddition reaction
